Data set [1] relates to G-CSF mobilized CD34+HSPCs. Briefly: Ex vivo cytokine-based expansion and NK cell differentiation of G-CSF mobilized peripheral blood CD34+HSPCs with or without 2 μM SR1. Also noted: species or system human. The protocol: (§1) Bone marrow samples were collected from healthy donors after written informed consent. Bone marrow-derived mononuclear cells (BM-MNCs) were isolated by Ficoll-hypaque (1.077 g/mL; GE Healthcare, Uppsala, Sweden) density gradient centrifugation. Peripheral blood-derived mononuclear cells (PB-MNCs) were obtained from aphaeresis material from stem cell donors who were treated with G-CSF (Neupogen®) 10 μg/kg/day subcutaneously for 5 to 6 days, after written informed consent. CD34+HSPCs were isolated using anti-CD34 immunomagnetic beads (Miltenyi Biotech, Bergisch Gladbach, Germany) according to manufacturer's instructions. CD34+HSPCs were directly used for NK cell generation.
CD34+HSPCs were plated into 24-well or 6-well tissue culture plates (Corning Incorporated, Corning, N.Y., USA). Cells were expanded during 9 or 10 days with a high-dose cytokine cocktail (Expansion cocktail I) consisting of 25 ng/mL IL-7 (Immunotools), 25 ng/mL SCF (Immunotools), 25 ng/mL TPO (Cellgenix) and 25 ng/mL Flt3L (Immunotools). From day 9 or 10 until day 14 or 15, TPO was replaced by 20 ng/mL IL-15 (Miltenyi). After day 14 or 15, cell differentiation was initiated by replacing Expansion cocktail I by a new high-dose cytokine cocktail (Differentiation cocktail) consisting of 20 ng/mL IL-7, 20 ng/mL SCF, 20 ng/mL IL-15 and 1000 U/mL IL-2 (Proleukin®; Chiron, München, Germany). Where mentioned, 2 μM StemRegenin1 (SR1; Cellagen Technology, San Diego, Calif., USA) was added to the culture medium (see FIG. 1A). Cells were cultured in Cellgro GMP DC medium (Cellgenix, Freiburg, Germany) supplemented with 10% human serum (HS; Sanquin Bloodbank, Nijmegen, The Netherlands) and a low dose cytokine cocktail consisting of […] G-CSF (Filgrastim, “Neupogen”—Amgen Corp. USA), 10 μg/mL GM-CSF and 50 μg/mL IL-6 (both Immunotools, Friesoythe, Germany). During the first 14 or 15 days of culture, low molecular weight heparin (Clivarin®; Abbott, Wiesbaden, Germany) was added to the medium in a final concentration of 20 μg/mL. Freshly isolated CD34+ cells were plated at a concentration of 1-4E+5/mL. After 3 days of culture, cells were transferred to a new plate in order to deplete for stromal cells. From day 14 or 15 onward, cell counts were kept above 2E+6 cells/mL. Cell cultures were refreshed with at least 30% new medium every 2 to 3 days. Cultures were maintained at 37° C., in 95% humidity, and 5% CO2. NK cells were used in experiments after 5 weeks of culture.
(§2) Cell numbers and expression of cell-surface markers were determined by FCM. Anti-human CD45-ECD (J.33, Beckman Coulter, Woerden, The Netherlands) and anti-CD56-PC7 (HCD56, Biolegend, San Diego, Calif., USA) antibodies were used to follow cell number and NK cell differentiation during culture using the Coulter FC500 flow cytometer (Beckman Coulter). The population of viable CD45+ cells was determined by exclusion of 7-AAD (Sigma, St Louis, Mo., USA) positive cells. For phenotypical analysis, cells were incubated with antibodies in FCM buffer (PBS/0.5% bovine serum albumin (BSA; Sigma) for 30 minutes at 4° C. After washing, cells were resuspended in FCM buffer and analyzed. The following conjugated monoclonal antibodies were used for NK cell phenotyping: anti-NKG2A-PE (Z199; Beckman Coulter), anti-DNAM-1-FITC (DX 11; BD Biosciences Pharmingen, Breda, The Netherlands), anti-CD16-FITC (3G8), anti-CD3-FITC (UCHT1), anti-NKG2D-PE (1D11), anti-NKp30-PE (P30-15), anti-NKp44-PE (P44-8), anti-NKp46-PD (9E5), anti-CD158b-PE (Dx27), anti-CD158e-PE (Dx9), anti-CD158a/h-PE (HP-MA4), anti-CD62L-PE (DREG56), anti-CD253-PE (RIK-2), anti-CXCR3-PE (G025H7), anti-CXCR4-PE (12G5), anti-IgG1-PE (MOPC-21), anti-IgG2a-PE (MOPC-173), anti-IgG2b-PE (MCP-11), anti-IgG1-FITC (MOPC-21; all from Biolegend).

The next data set has as its system BM-derived CD34+HSPCs. Put plainly: Ex vivo cytokine-based expansion and NK cell differentiation of bone marrow-derived CD34+HSPCs with or without 2 μM SR1. Also noted: species or system human. The protocol: as §1
CD34+HSPCs were plated into 24-well or 6-well tissue culture plates (Corning Incorporated, Corning, N.Y., USA). Cells were expanded during 9 or 10 days with a high-dose cytokine cocktail (Expansion cocktail I) consisting of 25 ng/mL IL-7 (Immunotools), 25 ng/mL SCF (Immunotools), 25 ng/mL TPO (Cellgenix) and 25 ng/mL Flt3L (Immunotools). […]
as §2, with “Anti-human CD45-ECD (J.33, Beckman Coulter, Woerden, The Netherlands) and anti-CD56-PC7 (HCD56, Biolegend, San Diego, Calif., USA) antibodies were used to follow cell number and NK cell differentiation during culture using the Coulter FC500 flow cytometer (Beckman Coulter).” left out

For the next data set, the system named is AhR. Briefly: qRT-PCR of AhRR and NK cell transcription factors in HSPC-NK cultures with or without SR1. The format is cell-based, human. The protocol:
Total RNA from 0.5-2E+5 cells, collected weekly from HSPC-NK cell cultures, was isolated using the Quick-RNA™ MicroPrep Kit (Zymo Research, CA, USA). Next, cDNA was synthesized using M-MLV-reverse transcriptase (Invitrogen) in a standard reaction as described before, after which real-time PCR was performed using the following Taqman Gene expression assays (Applied Biosystems, Forster City, Calif., USA): AhRR (Hs01005075_m1); TOX (Hs01055573_m1); ID2 (Hs04187239_m1); EOMES (Hs00172872_m1); GATA3 (Hs00231122_m1); SH2D1B (Hs01592483_m1); IFNG (Hs00989291_m1); GZMB (Hs01554355_m1); PRF1 (Hs99999108_m1). For all genes, Ct values were normalized to GAPDH (Hs02758991_g1) by calculating ΔCt=Cttarget gene−CtGAPDH per sample. Finally, gene expression levels were quantified relative to GAPDH as follows: 2^(−[ΔCt]).
After 5 weeks of culture, CD56+ cells were isolated from the total cultured cells. For this purpose cells were stained for 15 minutes at 4° C. using the appropriate concentration of anti-CD56-PEcy7 (CD56-PC7 (HCD56, Biolegend). Cells were washed and resuspended in FACS buffer at a concentration of 1.5E+6/mL, and subsequently sorted at the FACSAria Cell Sorter (BD Biosciences).

Another data set has as its system CD56+NK cells. Briefly: FCM phenotype of CD56+NK cells after 35 days of culture. The format is cell-based, human. The conditions noted are these: generated in the presence vs absence of SR1. The protocol:
as §2

The test system of data set [2] is CD34+ cells enriched from UCB, BM and mobilized blood. Briefly: SR1-based culture without heparin and low dose cytokines (UCB, BM and mobilized blood CD34+ cells). The class given is cell-based, human. The source says: Representation of the new ex vivo SR1-based culture protocol used for the generation of NK cells. In the expansion step, CD34+ cells are expanded and differentiated into NK progenitors using SCF, Flt3L, IL-7, TPO and an aryl hydrocarbon antagonist, preferably SR1. Thereafter, NK progenitors are further differentiated using IL-15, IL-12 and/or IL-2.
In earlier studies, we exploited a phased based addition of cytokines in heparin-based basal media (5-7). Heparin is able to bind certain cytokines, reducing their degradation and perhaps presenting them in a more physiological manner. Furthermore, low dose cytokine cocktail containing G-CSF, GM-CSF and IL-6 was being used, which was based on studies using the fetal liver-derived stromal cell line AFT024 [59]. Since we observed that the AhR antagonist is a crucial component for the ex vivo expansion of NK cells from BM and mobilized blood CD34+HSPCs, we investigated whether we could simplify the culture method by leaving out heparine and low dose cytokines G-CSF, GM-SCF and IL-6 that have mainly an effect on myeloid progenitor cells (see FIG. 7).

In the next data set the test system is HSPC-NK cells. Put plainly: Proliferation (CFSE dilution) and viability of HSPC-NK cells cultured 7 days with MPA or CsA. The class given is cell-based, human. The protocol: HSPC-NK cells were cultured according to our culture protocol for 35 days. After 35 days, NK cells were labeled with 1 μM CFSE as described previously. After staining, cells were resuspended in differentiation medium at a concentration of 2E+6/mL and plated in duplicate in a 96-well plate. […] After 7 days, cells were harvested. The number of viable target cells was quantified by FCM by gating on forward scatter and side scatter and exclusion of 7-AAD positive cells. Proliferation was analyzed by determining the CFSE dilution within CD56+ cells.

The next data set concerns K562 cells. Briefly: K562 killing and IFN-γ production by NK cells cultured in the presence of MPA or CsA. The class given is cell-based, human. The protocol:
Cell lines were labeled with 1 μM carboxyfluorescein diacetate succinimidyl ester (CFSE; Molecular Probes Invitrogen, Eugene, Oreg., USA) and primary AML blasts were labeled with 1.5 μM CFSE, both in a concentration of 1E+7/mL for 10 minutes at 37° C. The reaction was terminated by adding an equal volume of FCS. After washing, cells were resuspended in IMDM/10% FCS to a final concentration of 3E+5/mL. Target cells (3E+4) were co-cultured in triplicate with effector cells at different effector:target (E:T) ratios in a total volume of 200 μL IMDM/10% FCS in 96-wells round-bottom plates (Corning Incorporated). Effector cells and target cells alone were plated out in triplicate as controls. […] Cells were harvested and the number of viable target cells was quantified by FCM by gating on forward scatter and side scatter and exclusion of 7-AAD positive cells. Target cell survival was calculated as follows: % survival=([absolute number of viable CFSE+ target cells co-cultured with NK cells]/[absolute number of viable CFSE+ target cells cultured in medium])×100%. The percentage specific lysis was calculated as follows: % lysis=(100−[% survival]), as described earlier by Jedema et al. Degranulation of NK cells during overnight co-culture was determined as the percentage of CD107a expressing cells measured by FCM. […]

The mark [3] stands for this setting: FACS-sorted CD56+NK cells after 5 weeks, SR1 vs no SR1.

Structures are written as SMILES.

For `CC(C)n1cnc2c(NCCc3ccc(O)cc3)nc(-c3csc4ccccc34)nc21` [SR1, StemRegenin 1], the “Mean NK cell yield after 5 weeks of culture” value in data set [1] (G-CSF mobilized CD34+ cells, 2 μM SR1, range 115-904 fold, n=10) came to 235 fold. In addition, the “purity (NK cell differentiation, CD56+)” value in data set [1] (G-CSF mobilized CD34+HSPCs, with SR1, 5 weeks) was 83%±9%. Further, the “expansion of CD34+ cells” value in data set [1] (PB-derived HSPCs, addition of 2 μM SR1 vs no SR1) is listed as “strongly enhanced expansion of CD34+ cells”. In data set [1] (SR1-based NK cell cultures), the “amount of CD3+ T cells” value is 0.1%±0.1%. Moreover, the “average expansion of G-CSF-mobilized CD34+ cells” value in data set [1] (SR1-based protocol) is 268 fold. Also, the “frequency of CD34+ cells at the end of the culture process” value in data set [1] (SR1 cultures) is reported as 0.7%±0.4%. Also, the “remaining non-NK cells: CD14+ and/or CD15+ mature monocytic and myelocytic cells” value in data set [1] (SR1 cultures, end of culture) was 11%±6%. In the data set on BM-derived CD34+HSPCs (BM-derived CD34+ cells, with SR1, 5 weeks), the “purity (NK cell differentiation, CD56+)” value is on record as 84%±18%. The “Mean NK cell yield after 5 weeks of culture” value with BM-derived CD34+HSPCs (BM-derived CD34+HSPCs, 2 μM SR1, range 33-301, n=4) worked out at 129 fold. Besides, in the data set on BM-derived CD34+HSPCs (BM-derived HSPCs, addition of 2 μM SR1 vs no SR1), the “expansion of CD34+ cells” value was “strongly enhanced expansion of CD34+ cells”. Further, the “IFN-γ mRNA expression” value in the data set with AhR (FACS-sorted CD56+NK cells after 5 weeks, not exposed to target cells, SR1 vs no SR1) is given as “not increased”. Moreover, in the data set with AhR (setting [3]), the “GATA-3 and EAT-2 expression” value was “similar”; the “GZMB and PERF expression” value was “slightly higher, but not significantly increased”; the “TOX, ID2 and EOMES expression” value is recorded as “did not observe increased expression”. The “AhRR expression relative to GAPDH” value in the data set on AhR (total cells, 2 μM SR1 vs no SR1) is “efficient down regulation”. Moreover, in the data set with AhR (total cells, SR1 vs no SR1), the “EOMES expression relative to GAPDH” value is “upregulated from week three onward”; the “GATA-3 and EAT-2 (SH2D1B) expression relative to GAPDH” value is on record as “increased in cells cultured in the presence of SR1”; the “ID2 expression relative to GAPDH” value is recorded as “increased from day 14 onwards”. For the same compound, the “TOX expression relative to GAPDH” value in the data set with AhR (total cells, from day 7 onward, SR1 vs no SR1) was “higher expression”. In addition, the “presence of CD62L, CXCR3, DNAM-1 and TRAIL on CD56+ cells” value in the data set on CD56+NK cells is “significantly higher”. Also, the “expansion of CD56+NK cells from CD34+ cells” value in data set [2] (2 μM SR1 for 21 days, no heparin, G-CSF, GM-CSF, IL-6) is on record as “promotes the expansion of CD56+NK cells”. Moreover, in data set [2] (SR1-based cultures without heparin and low dose cytokines), the “remaining non-NK cells, mainly CD14+ monocytic cells” value is recorded as less than 20%.
Consider `COc1c(C)c2c(c(O)c1C/C=C(\C)CCC(=O)O)C(=O)OC2` [MPA, mycophenolic acid], for which the “proliferation of HSPC-NK cells” value with HSPC-NK cells (MPA 0.1 μg/ml) is “already inhibited”. Also, in the data set on HSPC-NK cells (MPA 0.1 to 10 μg/mL or CsA 0.01 to 1 μg/mL), the NK cell viability entry was “induced dose-dependent cell death”. The “NK cell-mediated killing of K562 cells” value in the data set with K562 cells (NK cells cultured with drug, overnight, E:T 1:1) was “impaired killing”. In the data set on K562 cells (NK cells incubated with drug, overnight co-culture with K562, E:T 1:1), the IFN-γ production entry is given as “impaired IFN-γ production”.

The values are drawn from patent US20220333078A1, “Method for ex vivo expansion CD34+HSPCs into NK cells using an aryl hydrocarbon receptor antagonist” (Stichting Radboud universitair medisch centrum, priority 2015, published 2022).
